Results on 1 compound are retold here after patent US11246872B2, “Topical acyclovir formulations and uses thereof” (priority 2019, dated 2022).

This data set is classed as physicochemical. Here is the method:
This Example studies the solubility and stability of acyclovir in various topical excipients. Table 1 and Table 2 below indicate the various excipients that solubility was tested in and stability of acyclovir in these excipients, respectively. [table]

Where two headings read alike, the source gives them in different places.

On to `Nc1nc2c(ncn2COCCO)c(=O)[nH]1` [Acyclovir], for which the “Saturated solubility of Acyclovir” value is, setting by setting: (pH 4) 0.10 (0.10-0.10) % w/w; (pH 6) 0.10 (0.09-0.10) % w/w.
